Measurements reported in article PMC10541411 (Nature Communications, 2023).

Experiments:
[1] = test system: 53BP1^FFR-PN IRIF in U2OS cells; assay: 53BP1FFR ionizing radiation-induced foci (IRIF) formation, immunofluorescence, PN mutant; type: cell-based, Homo Sapiens; settings: 1 Gy X-ray, different concentrations of UNC3474
From the text: (§1) The foci-forming region (FFR; residues 1220–1711) of wild-type 53BP1 and mutants E1549P/D1550N (53BP1^FFR-PN) and E1549C/E1567C (53BP1^FFR-CC) were inserted into the retroviral vector POZ. The primers used to introduce the E1549P/D1550N mutations are: […] (forward) and […] (reverse). The primers used to introduce the E1549C/E1567C mutations are: […] (forward) and […] (reverse). The 53BP1^FFR constructs were stably expressed at a moderate level in U2OS cells. To probe the effect of UNC3474 on 53BP1^FFR IRIF formation, U2OS cells were grown on glass coverslips, pre-incubated for 1 h with various concentrations of UNC3474 and exposed to 1 Gy of X-ray radiation. After 1 h, the cells were fixed in 4% formaldehyde in PBS for 15 min at room temperature and blocked and permeabilized for 1 h in PBS containing 0.3% Triton X-100, 1% BSA, 10% fetal bovine serum. […]
(§2) Cell samples were subjected to z-stack scanning with a total depth of 5 μm to comprehensively capture all 53BP1^FFR and γH2A.X IRIF within the cell nuclei, which were fluorescently labeled with DAPI. […] To assess the quantification of 53BP1^FFR and γH2A.X foci per nuclei, a customized CellProfiler (version 3.0)[68] pipeline was employed. […]

53BP1^TT = biological target: T1, 53BP1^TT (Homo sapiens, UniProt Q12888); assay: Sedimentation velocity analytical ultracentrifugation (AUC); settings: 53BP1TT 20 μM, UNC3474 10-200 μM
T1 construct: The tandem Tudor domain of 53BP1 (53BP1^TT, residues 1481–1603) was purified as previously described; made in house; host or cells: E. coli (only for the SAXS sample)
Procedure: The AUC experiments were performed at 20 °C in 20 mM sodium phosphate, pH 7.5, with 50 mM NaCl. 53BP1^TT was at a concentration of 20 μM. Measurements were recorded on an Optima analytical ultracentrifuge (Beckman Coulter) with an An-50 Ti analytical 8-place rotor using absorbance detection at 280 nm. Sample-filled AUC cells assembled with 12-mm charcoal-filled Epon centerpieces and quartz windows were subjected to 3 h of equilibration at 20 °C under vacuum prior to initiating the experiments at 50,000 rpm (corresponding to 182,000 × g at the cell center and 201,600 × g at the cell bottom) with continuous data acquisition for 20 h (200 scans) at 20 °C. The AUC data were analyzed with the c(s) model in SEDFIT[66] using a partial specific volume of 0.7335 mL/g.

53BP1^TT WT = 53BP1^TT WT (Homo sapiens, UniProt Q12888); assay: 1H-15N HSQC NMR titration of 15N-labeled wild-type 53BP1TT; type: binding; set-up: The tandem Tudor domain of 53BP1 (53BP1^TT, residues 1481–1603) was purified as previously described; made in house; host or cells: E. coli (only for the SAXS sample); settings: 15N-labeled WT 53BP1TT
Procedure: (§3) All NMR data were collected at 25 °C on a 700 MHz Bruker Avance III spectrometer equipped with a cryoprobe. Data were processed and analyzed with NMRPipe[54] and NMRViewJ[55],[56].
(§4) To probe chemical shift perturbations, ^1H-^15N HSQC spectra were acquired on the following samples: 0.2 mM ^15N-labeled 53BP1^TT WT and 53BP1^TT-PN in 25 mM sodium phosphate, pH 7.0, 1.5 mM NaN3, 0.3 mM DSS, 90% H2O/10% D2O, free and incrementally titrated with various non-labeled inhibitors (UNC1078, UNC1118, UNC2170, UNC2991, UNC3474), as well as with H4KC20me2 and p53K382me2 peptides. Chemical shift perturbations (Δδ) were calculated using the Eq. (1):1 Δδ=(ΔN/5)^2+ΔH^2 where ΔN and ΔH are the corresponding differences in ^15N and ^1H chemical shifts between the bound and free forms of 53BP1.

[2] = test system: 53BP1^FFR-CC IRIF in U2OS cells; assay: 53BP1FFR ionizing radiation-induced foci (IRIF) formation, immunofluorescence, CC mutant; type: cell-based, Homo Sapiens; settings: 1 Gy X-ray, different concentrations of UNC3474
From the text: as §1, §2

[3] = biological target: T2, 53BP1^TT-CC (E1549C/E1567C) (Homo sapiens, UniProt Q12888, E1549C/E1567C); assay: 1H-15N HSQC NMR of 15N-labeled 53BP1TT-CC with UNC3474, with and without DTT; type: binding
T2 construct: The tandem Tudor domain of 53BP1 (53BP1^TT, residues 1481–1603) was purified as previously described; made in house
Procedure: Fig. 4 Engineering of a disulfide-crosslinked 53BP1^TT homodimer that binds UNC3474. a Sedimentation velocity analysis of 53BP1^TT-CC (20 μM) in the presence and absence of 10 mM DTT. b Crystal structure of 53BP1^TT-CC (blue and orange) showing the two disulfide bridges overlaid to the crystal structure of 53BP1^TT-UNC3474 (UNC3474 omitted) in gray. c Effects of adding 2 mM DTT and UNC3474 on the ^1H-^15N HSQC spectrum of ^15N-labeled 53BP1^TT-CC (1:1 UNC3474:53BP1^TT-CC molar ratio).
as §3

[4] = biological target: T3, 53BP1^TT-PN (E1549P/D1550N) (Homo sapiens, UniProt Q12888, D1550N/E1549P); assay: 1H-15N HSQC NMR titration of 15N-labeled 53BP1TT-PN; type: binding; settings: up to fourfold molar excess
T3 construct: The tandem Tudor domain of 53BP1 (53BP1^TT, residues 1481–1603) was purified as previously described; made in house
Procedure: as §3, §4

T2 sequence (Q12888 1481-1603 E1549C/E1567C): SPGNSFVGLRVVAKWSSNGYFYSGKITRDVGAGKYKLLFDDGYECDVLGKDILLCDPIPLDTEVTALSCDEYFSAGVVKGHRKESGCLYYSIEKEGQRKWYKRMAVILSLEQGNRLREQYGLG
T3 sequence (Q12888 1481-1603 E1549P/D1550N): as the sequence (Q12888 1481-1603 E1549C/E1567C) above, with C69P, D70N, C87E counted along it
T1 sequence (Q12888 1481-1603): as the sequence (Q12888 1481-1603 E1549C/E1567C) above, with C69E, C87E counted along it
Sequence of 53BP1^TT WT (Q12888 1481-1603): as the sequence (Q12888 1481-1603 E1549C/E1567C) above, with C69E, C87E counted along it

CC(C)c1cccc(C(=O)NCCCNC(C)(C)C)c1 [UNC3474]
53BP1FFR-PN IRIF [1]: no significant change
change in sedimentation coefficient of 53BP1TT (53BP1^TT): consistent with the dimerization of 53BP1^TT
changes in signal positions in the 1H-15N HSQC spectrum of 53BP1TT upon titration (53BP1^TT WT): slow exchange on the chemical shift time scale
53BP1FFR-CC IRIF [2]: no significant change
affinity of reduced monomeric 53BP1TT-CC ([3]; with DTT (2 mM)): no affinity
effect on 1H-15N HSQC spectra of 53BP1TT-CC (disulfide-crosslinked dimer) ([3]; without DTT, 1:1 UNC3474:53BP1TT-CC molar ratio): splitting of several NMR signals
interaction with 53BP1TT-PN (1H-15N HSQC titration) [4]: did not interact
